Test results published in the RepoRT retention time repository.
Structures can show the parent of a compound that is named as a salt.

Experiment: RP, Thermo Scientific Hypersil GOLD, 1.9 µm, 40 °C, 0.4 mL/min; A: water + 0.1% formic acid, pH 3; B: acetonitrile + 0.1% formic acid, pH 3; gradient (min/%B) 0/0 1/0 11/100 13/100 14/0 16/0
Details: stereoisomer not certain

LC retention time [min]	SMILES
10.7	CC(CCC(=O)O)C1CCC2C3CCC4CC(=O)CCC4(C)C3CCC12C (centres undefined) [5b-cholanic acid-3-ONE]
0.59	NC(CS)C(=O)NCC(=O)O (centres undefined) [CYS-GLY]
0.88	O=C([O-])C=CC(=O)[O-] [MALEATE]
1.73	Cc1ncc(CO)c(C(=O)O)c1O [4-PYRIDOXATE]
7.35	CC(=O)C1(O)CCC2C3CCC4=CC(=O)CCC4(C)C3C(O)CC21C (centres undefined) [21-Deoxycortisol]
0.74	COC1OC(CO)C(O)C(O)C1O (centres undefined) [METHYL GALACTOSIDE]
6.67	O=C(O)CCCCCCCCC(=O)O [Sebacic acid]
4.83	O=C(O)CCc1ccc(O)cc1O [3-(2-4-Dihydroxyphenyl)propionic acid]
0.5	CC(=O)NCCCNCCCCNCCCN [N1-ACETYLSPERMINE]
0.61	CC(N)(Cc1cnc[nH]1)C(=O)O (racemic) [Alpha-methyl-DL-histidine dihydrochloride]
0.65	O=P(O)(O)OCC1OC(O)C(O)C1O [D-RIBOSE 5-PHOSPHATE]
0.57	NCC(O)CCC(N)C(=O)O (centres undefined) [5-HYDROXYLYSINE]
4.4	CC(C)CC(NC(=O)C1CCCN1)C(=O)O (centres undefined) [Pro-Leu]
1.6	Cn1cc(C(N)=O)ccc1=O [N-methyl-2-pyridone-5-carboxamide]
3.77	CCC(C(=O)O)C(=O)O [ETHYLMALONATE]
4.62	CC(=O)NC(C(=O)O)C(C)C (racemic) [N-acetyl-DL-valine]
6.29	O=c1c(O)c(-c2ccc(O)cc2O)oc2cc(O)cc(O)c12 [Morin hydrate]
0.72	CC(=O)NC(CCCC[NH3+])C(=O)[O-] (stereo not drawn) [N-ALPHA-ACETYLLYSINE]
5.13	O=Cc1ccc(O)cc1 [4-HYDROXYBENZALDEHYDE]
0.87	O=C([O-])c1c[nH]c(=O)[nH]c1=O [URACIL 5-CARBOXYLATE]
6.87	O=C(O)CCc1ccccc1 [hydrocinnamic acid]
5.21	CC(C)(CCC(=O)O)C(=O)O [2-2-Dimethylglutaric acid]

LC retention time [min]	SMILES
4.97	COc1cc(C(=O)O)ccc1O [Vanillic acid]
0.65	NCC(O)c1ccc(O)c(O)c1 (centres undefined) [NORADRENALINE]
0.64	NCCOP(=O)(O)OP(=O)(O)OCC1OC(n2ccc(N)nc2=O)C(O)C1O (centres undefined) [CDP-ETHANOLAMINE]
5.67	CCCCCC(=O)OC(CC(=O)[O-])C[N+](C)(C)C [Hexanoyl-L-carnitine]
0.54	NCCCCN [PUTRESCINE]
0.69	C[n+]1cccc(C(=O)[O-])c1 [TRIGONELLINE]
4.92	CC(C)CC(=O)OC(CC(=O)[O-])C[N+](C)(C)C [Isovaleryl-L-carnitine]
5.26	O=C(O)C(=O)Cc1ccccc1 [PHENYLPYRUVATE]
0.78	NC(=O)c1ccc[n+](C2OC(COP(=O)(O)OP(=O)(O)OCC3OC(n4cnc5c(N)ncnc54)C(O)C3O)C(O)C2O)c1 (stereo not drawn) [BETA-NICOTINAMIDE ADENINE DINUCLEOTIDE]
3.83	c1ccc2ncccc2c1 [QUINOLINE]
4.88	O=C(O)c1ccc(O)cc1O [2-4-Dihydroxybenzoic acid]
1.27	Nc1ncnc2c1ncn2C1OC(COP(=O)(O)OP(=O)(O)OC2OC(CO)C(O)C(O)C2O)C(O)C1O (centres undefined) [ADP-GLUCOSE]
0.84	NC(=O)C1CCCN1C(=O)C(Cc1cnc[nH]1)NC(=O)C1CCC(=O)N1 (centres undefined) [THYROTROPIN RELEASING HORMONE]
3.97	COC(=O)CCC(=O)O [mono-Methyl hydrogen succinate]
4.61	CSCCC(NC(C)=O)C(=O)O (centres undefined) [N-ACETYLMETHIONINE]
0.65	N[C@@H](CCC(=O)O)C(=O)O [L-Glutamic acid]
6.32	CCCCCCSCC(NC(=O)CCC(N)C(=O)O)C(=O)NCC(=O)O (centres undefined) [S-HEXYL-GLUTATHIONE]
0.62	NC(N)=NCC(=O)O [GUANIDINOACETATE]
11.5	CC(C=CC1=C(C)CCCC1(C)C)=CC=CC(C)=CC(=O)[O-] [RETINOATE]
0.81	O=C(O)c1cc[n+]([O-])cc1 [Isonicotinic acid N-oxide]
8.24	O=C(O)c1ccc2ccccc2c1[O-] [1-HYDROXY-2-NAPHTHOATE]
0.83	O=C(O)CC(=O)O [MALONATE]

LC retention time [min]	SMILES
0.6	O=c1ccn(C2OC(COP(=O)(O)OP(=O)(O)OP(=O)(O)O)C(O)C2O)c(=O)[nH]1 (centres undefined) [URIDINE TRIPHOSPHATE]
0.86	Nc1ncnc2c1ncn2C1OC(CO)C(O)C1O (centres undefined) [ADENOSINE]
4.79	CC(C)C(O)(CC(=O)O)C(=O)O (centres undefined) [2-Isopropylmalic acid]
10.4	CCCCCCCCCCCCCCCCCCOCC(O)COP(=O)([O-])OCC[N+](C)(C)C (centres undefined) [C18_LysoPAF]
0.83	CCC(NC(=O)CCC(N)C(=O)O)C(=O)NCC(=O)O (centres undefined) [OPHTHALMATE]
5.33	NC(=O)c1ccccc1O [SALICYLAMIDE]
1.6	O=c1cccc[nH]1 [2-HYDROXYPYRIDINE]
7.13	CC(CCC(=O)NCCS(=O)(=O)O)C1CCC2C3C(O)CC4CC(O)CCC4(C)C3CC(O)C12C (centres undefined) [taurocholic acid  sodium salt hydrate]
0.7	O=C[C@H](O)[C@H](O)CO [D-(-)-Erythrose]
0.82	Cc1cccnc1 [3-Methylpyridine (3-Picoline)]
5.15	O=C(O)CCCCC1SCC2NC(=O)NC21 (centres undefined) [BIOTIN]
2.04	O=C(O)c1cccc[n+]1[O-] [Picolinic acid N-oxide]
12.5	CCCCCCCCCCCC=CCCCCC(=O)[O-] [PETROSELINATE]
3.43	Nc1c(O)cccc1C(=O)O [3-HYDROXYANTHRANILATE]
4.02	Cn1cnc2c1c(=O)[nH]c(=O)n2C [THEOBROMINE]
0.59	C[N+](C)(C)CCCCC(N)C(=O)[O-] (centres undefined) [N-N-N-TRIMETHYLLYSINE]
7.45	CCCCCCCC=CC(=O)OC(CC(=O)[O-])C[N+](C)(C)C (stereo not drawn) [Trans -2-decenoyl-l-carnitine]
0.82	Nc1cc(C(=O)O)ccc1[O-] [3-AMINO-4-HYDROXYBENZOATE]
5.73	CC(=O)NC(Cc1ccccc1)C(=O)O (centres undefined) [N-ACETYLPHENYLALANINE]
6.35	O=C(O)C(=O)CCc1ccccc1 [2-oxo-4-phenyl-butyric acid]
5.11	O=C(O)Cc1cccc(O)c1 [3-HYDROXYPHENYLACETATE]
0.82	NC(=O)c1ccc[n+](C2OC(COP(=O)(O)OP(=O)(O)OCC3OC(n4cnc5c(=O)[nH]cnc54)C(O)C3O)C(O)C2O)c1 (centres undefined) [NICOTINAMIDE HYPOXANTHINE DINUCLEOTIDE]

LC retention time [min]	SMILES
0.64	OCC1OC(O)C(O)C(O)C1O (centres undefined) [GALACTOSE]
0.54	NC(CO)Cc1cnc[nH]1 (centres undefined) [HISTIDINOL]
2.61	Cn1c(=O)[nH]c(=O)c2[nH]cnc21 [3-Methylxanthine]
0.68	O=C(O)C1(O)CC(O)C(O)C(O)C1 (centres undefined) [QUINATE]
4.72	O=C([O-])C(O)c1ccccc1 (centres undefined) [MANDELATE]
11.2	C=C(C)C1CCC2(C(=O)O)CCC3(C)C(CCC4C5(C)CCC(O)C(C)(C)C5CCC43C)C12 (centres undefined) [Betulinic acid]
3.82	Cn1cnc2c(ncn2C2OC(CO)C(O)C2O)c1=N (centres undefined) [1-METHYLADENOSINE]
0.62	NC(=O)C[C@H](N)C(=O)O [L-Asparagine]
10.8	CCCCCCCCCCCCCC=CC(O)C(CO)NC(C)=O [N-Acetyl-D-sphingosine]
1.13	Nc1ccn(C2CC(O)C(COP(=O)([O-])OP(=O)([O-])[O-])O2)c(=O)n1 (centres undefined) [DEOXYCYTIDINE-DIPHOSPHATE]
1.47	Cc1c[nH]c(=O)[nH]c1=O [THYMINE]
0.82	Nc1nc2nccnc2c(=O)[nH]1 [PTERIN]
0.57	Cn1cncc1CC(NC(=O)CCN)C(=O)O (centres undefined) [ANSERINE]
3.49	O=C(O)c1ccc(O)c(O)c1 [3-4-DIHYDROXYBENZOATE]
5.82	O=C(O)/C=C/c1cccc(O)c1 [trans-3-Hydroxycinnamic acid (m-Coumaric acid)]
1.42	Nc1ccccc1S(=O)(=O)O [ANILINE-2-SULFONATE]
0.65	NC(CS(=O)(=O)O)C(=O)O (centres undefined) [CYSTEATE]
0.87	Nc1ccc(C(=O)O)cn1 [6-Aminopyridine-3-carboxylic acid]
4.41	Cn1c(=O)[nH]c2ncn(C)c2c1=O [PARAXANTHINE]
0.64	OCC(O)C(O)C(O)CO (centres undefined) [RIBITOL]
6.38	O=C(O)CC(Cc1ccccc1)C(=O)O (racemic) [dl-benzylsuccinic acid]

SMILES	LC retention time [min]
CC(=O)OCC(=O)O [Acetoxyacetic acid]	1.93
NC1CCSC1=O (centres undefined) [HOMOCYSTEINE THIOLACTONE]	0.72
NCCc1ccccc1 [PHENETHYLAMINE]	4.03
O=C(O)CCCCCCCCCO [10-HYDROXYDECANOATE]	6.79
CNCCc1c[nH]c2ccccc12 [N-METHYLTRYPTAMINE]	4.93
COc1cc(CCN)ccc1O [3-METHOXYTYRAMINE]	2.47
CCCCC(CC)COC(=O)c1ccccc1C(=O)OCC(CC)CCCC (centres undefined) [BIS(2-ETHYLHEXYL)PHTHALATE]	13
